Results reported in a melting point compilation (Tetko et al.; mined from patent text by program, amines drawn as free bases though some values may be those of a salt).

SMILES | melting point
COc1cc(C)c2c(c1)OC(C)(C)CC2=O | 86 to 88 °C
COC(=O)CCCCCCn1[nH]c(=O)n(C)c1=O | 80 to 81 °C
CC(C)c1ccc(C(=O)c2ccc(CC(=O)O)n2C)cc1 | 98 to 101 °C
CC(=O)Oc1cc(O)c(Cl)cn1 | 270 to 272 °C
O=Cc1cc(Br)c(Cl)cc1[N+](=O)[O-] | 81 to 82 °C
NC(CSc1nc(NCc2ccc3c(c2)OCO3)cc(-c2ccccc2)n1)=NO | 160 to 163 °C
CCOC(=O)c1cnc2c3ccccc3c(CC)cn2c1=O | 161 to 163 °C
CN1CCN(c2cccc(Nc3nc4c(-c5ccc(S(C)(=O)=O)cc5)cccn4n3)c2)C(=O)C1 | 234 to 236 °C
O=c1nc(-c2cccc(Oc3ccccc3)n2)sc2ccccc12 | 161 °C
CCCCCNC(=O)[C@H](Cc1ccc(N(CC(=O)O)CC(=O)O)cc1)NC(=O)[C@H](Cc1ccccc1)NC(=O)OC(C)(C)C | 151 to 152 °C
CC(=O)NN=Cc1ccc2ccccc2n1 | 218 to 219 °C
COc1ccc(C(=CC#N)c2cccc(N)c2)cc1OC | 100 to 101 °C
COC(=O)c1ccccc1SC1=C(O)CC(CCc2ccccc2)(c2ccccc2)OC1=O (stereo not given) | 91 to 92 °C
CCNC(=O)ON=C1N=C(C)C(C)(C)S1 | 84 to 86 °C
CC(C)(C)OC(=O)N[C@@H](Cc1ccc(-c2ccccc2)cc1)C(=O)O | 122 to 123 °C
CC(Oc1ccccc1)(c1ccc(O)cc1)c1ccc(O)cc1 | 172 to 174 °C
CCOC(=O)C1=C(C)NC(C)=C(C(=O)OCC)C1c1ccc(F)cc1 | 150 to 151 °C
CCOC(=O)c1cnn(-c2cc(C)cc(C)c2)c1N | 113 to 114 °C
O=C1CCC(N2Cc3cc(CNC(=O)c4ccc(Cl)cc4)ccc3C2=O)C(=O)N1 (stereo not given) | 278 to 280 °C
CCCC[C@@H](C)C[C@@H](CC(=O)OC(C)(C)C)C(=O)N1C(=O)O[C@@H](c2ccccc2)[C@H]1C | 84 to 86 °C
CC(=O)c1ccc(-c2cc(-c3c(-c4ccccn4)nc4ccccn34)ccn2)cc1 | 214 °C

SMILES | melting point
Cc1c(Br)sc2ccc(Br)cc12 | 118 to 122 °C
COc1ccc(CCNc2nc3nc(-c4ccco4)nc-3c(N)[nH]2)cc1 | 220 to 222 °C
CC(=O)c1ccc(-c2ccc(CC(=O)NC3CCN(Cc4ccc(Cl)c(Cl)c4)CC3)cc2)cc1 | 184 °C
C#Cc1ccc2cc(OC)ccc2c1 | 111 to 112 °C
COC(=O)c1c(OCc2ccccc2)ccc2c1CC[C@H](NC(C)(C)C)[C@@H]2O (relative stereo) | 104 to 105 °C
C1=C(c2cc(-c3ccccc3)no2)CCN(Cc2c[nH]c3ncccc23)C1 | 224 to 226 °C
CCOC(=O)c1c(C(C)C)c(S(=O)(=O)c2ccc(OC)cc2)n2ccccc12 | 103 to 104 °C
COc1cc(OC)nc(NC(=O)N=NS(=O)(=O)C2OCCN2C)n1 (stereo not given) | 174 to 175 °C
O=C(O)c1cccc(N(C(c2ccccc2)c2ccccc2)n2cc(C3c4ccccc4C=Cc4ccccc43)c(=S)[nH]c2=O)c1 | 210 °C
CC(=O)NC1CCN(c2c(F)cc3c(=O)c(C(=O)O)cn4c3c2CCC4C)CC1 (stereo not given) | 274 to 277 °C
CCCc1cc(-c2ccc(Cl)cc2)nc2c(C(=O)Nc3cccc(S(C)(=O)=O)c3)cnn12 | 214 to 217 °C
CC(C)N(CCNC(=O)c1csc(NC(=O)C2=CC=CC(=Nc3ccc[nH]3)C2)n1)C(C)C | 160 to 162 °C
NS(=O)(=O)c1c(Cl)sc(Cl)c1Br | 113 to 117 °C
O=[N+]([O-])c1nccn1CC(O)CN1C2CCCCCCC21 (stereo not given) | 120 to 122 °C
CCOC(=O)/C=C(C)/C=C/C=C(\C)C1=Cc2cc(C(C)(C)C)cc(C)c2OC1 | 73 °C
Brc1cccc(-c2ccccc2)n1 | 50 °C
CCCCCCCCCCCCCCCCOC(=O)CCCCCCCCCCCCCCC | 75 °C
CON1CCC2(CC1)NC(=O)C(c1c(C)cc(C)cc1C)=C2OCc1ccccc1 | 184 to 186 °C
COc1ccc(C(=O)CC(=O)C(F)F)cc1F | 70 to 72 °C
CCC(=S)C1=C(C)NC2=C(C1)C(=O)c1ccccc12 | 240 °C
Clc1ccc(-n2ccc(OCCOCCN3CCCCC3)n2)cc1Cl | 126 to 128 °C

SMILES | melting point
CSc1ccc(-c2nc(SC)c(C#N)c(=O)n2-c2ccc(Br)cc2)cc1 | 213 to 215 °C
O=C(O)Cc1cc(C(=O)c2ccc([N+](=O)[O-])cc2)ccc1O | 213 °C
CCOC(=O)NCc1cccc(C(=O)OC)c1C(=O)OC | 187 to 189 °C
O=c1[nH]c2ccsc2c(=O)n1CCN1CCN(c2ccccc2Cl)CC1 | 193 to 196 °C
CC1(C)CCC[C@H](NC(c2ccccc2)(c2ccccc2)c2ccccc2)C(=O)N1 | 139 to 140 °C
CCCc1c(C(=O)CC)c2ccc(C(N)=O)cc2n1Cc1ccccc1Cl | 151 to 152 °C
N#Cc1c(F)cccc1S(=O)(=O)N(Cl)Cl | 149 to 152 °C
C=CCOC(=O)C1=C(C)NC(C)=C(C(=O)OC)C1c1ccccc1F (stereo not given) | 130 °C
CS(=O)(=O)Nc1cc2occ(N)c(=O)c2cc1Oc1ccccc1 | 162 to 163 °C
CCc1nc2ccccc2c2ccc(F)cc12 | 105 to 106 °C
Nc1ncnc2c1ncn2COCCO | 200 °C
CC(C)CCc1sc(NC(=O)c2cc([N+](=O)[O-])cn2C)nc1C(=O)O | 296 to 300 °C
CCOC(=O)c1cc2cc(/C=C/C(=O)c3cc(OC)c(OC)c(OC)c3)cc(C(C)CC)c2oc1=O (stereo not given) | 138 to 139 °C
COC(=O)CN1CCN(CC(=O)OC)[C@@H](C(N)=O)[C@H]1C(N)=O | 172 to 173 °C
COc1ccc(C2=NN(c3cccc(C(=O)N4CCOCC4)c3)C(=O)C(C)(C)C2)cc1OC | 108 to 109 °C
CCCCCCCCC1OC(=O)c2cc(NC(C)=O)ccc21 (stereo not given) | 133 to 134 °C
COCCOc1ccc(Nc2nc(Nc3cc4c(cc3OC)CCN(CC(=O)N(C)C)CC4)ncc2Cl)c(OC)c1 | 51 to 59 °C
Cc1ccccc1CCC(=NO)C(=O)C(F)(F)F | 80 to 81 °C
COC(=O)C=C1CCCCC1c1cc(OC)cc(OC)c1 (stereo not given) | 80 to 81 °C
CCOC(=O)C=Cc1cc(C=CC(N)=O)cc(C(O)c2ccc(F)cc2)c1 (stereo not given) | 197 to 199 °C

Second part, the compound after the results:

melting point | SMILES
114 to 116 °C | O=C1c2ccccc2C(=O)N1[C@@H]1C=CC[C@H]1O (relative stereo)
126 to 127 °C | COc1ccc(C(=O)N2CCc3cc(OCc4ccccc4)c(OC)cc3C2)cc1
73.3 °C | COc1cc(OCC2CCCO2)ccc1C=O (stereo not given)
160 to 166 °C | CCCc1c(OCCCOc2ccc(O)cc2)ccc2c1OC(CCC(=O)O)(CCC(=O)O)CC2=O
149 to 153 °C | CCOC(=O)c1cn(C2CC2)c2c(Cl)c(F)ccc2c1=O
68 to 70 °C | NCCCN1CCOC(c2ccccc2)(c2ccccc2)CC1
72.5 to 74.5 °C | COc1ccccc1NC(=O)c1ccc(C)cc1
128 to 133 °C | CCc1nc(N)nc(N)c1CCCc1cccc(-c2ccccc2)c1
143 to 145 °C | Cn1ccnc1Sc1ccc(Cl)cc1[N+](=O)[O-]
188 °C | COc1ccc2ccc(N3C(=O)c4ccccc4C3OCC(=O)OC(C)(C)C)nc2n1 (stereo not given)
157 to 158 °C | Cc1ccccc1OS(=O)(=O)c1ccc(N2CCN(C)C2=O)cc1
169 to 171 °C | Cc1noc(CC(=O)N(N)C(=O)c2ccco2)n1
159 °C | CCCCCC(=O)OCC(=O)C1C(C)CC2C3=C(C(=O)CC21C)C1(C)C=CC(=O)C=C1C(F)C3 (stereo not given)
67 to 69 °C | COc1ccc(C=C(Br)Br)cc1OC(C)C
130 to 136 °C | CCc1cc(N(C)Cc2ccc3oc(-c4ccccc4C#N)c(Br)c3c2)n2nccc2n1
134 to 137 °C | Nc1nc2ccccc2c2c1nc1n2C(COCc2ccc(F)cc2)COC1 (stereo not given)
50 to 51 °C | CCOC(=O)C(Cc1cc(OC)c(OC)cc1OC)C(=O)OCC
100 to 102 °C | CC(C)NCC(O)COc1cccc2nsnc12 (stereo not given)
175 °C | CC#CCOc1ccc(S(=O)(=O)C(C(=O)NO)c2ccc(-c3cccs3)cc2)cc1 (stereo not given)

melting point | SMILES
162 to 163 °C | CCC(Cn1nccn1)n1nnc2cc3c(=O)n(C(C)Cn4ncnn4)nnc3cc2c1=O (stereo not given)
119 to 120 °C | CCN1CNS(=O)(=O)c2sc(Cl)cc21
113 to 114 °C | COC(=O)C(=CN(C)C)N(C)c1cc(-c2ccc(Cl)c(Cl)c2)n(C)n1
113 to 114 °C | CC(C)(O)CC(=O)c1cc(C(C)(C)C)c(O)c(C(C)(C)C)c1
> 250 °C | O=c1ccc(-c2c(-c3ccccc3)nn3ccncc23)c[nH]1
180 to 190 °C | c1cc2c3c(c1)C[C@@H]1CCC[C@@H]1N3CCNC2 (relative stereo)
75.3 to 80.3 °C | O=C(CCCC(=O)C(F)(F)F)c1cccc(OCc2ccccc2)c1
134 to 135 °C | CC(C)(C)OC(=O)N1C(=O)O[C@@H](c2ccc(F)cc2)[C@H]1Cc1ccc(C(F)(F)F)o1 (racemic)
115 to 116 °C | CCSc1cc(C)nc(SCC)c1NC(=O)CCCCCCCCSc1nc2cccc(C(F)(F)F)c2o1
134 °C | CC(C)(C)c1cccc(S(=O)(=O)Nc2cc(C(F)(F)F)ccc2I)c1
224 to 227 °C | O=C1Nc2ccccc2Oc2c1csc2Cl
164 °C | CCO[C@@H]1c2ccc3c(nc(C)n3C)c2O[C@H](c2ccccc2)[C@H]1OC(=O)C(C)(C)C
170 to 171 °C | COCC(=O)Nc1c(Cl)c(C)cc2nc(OC)c(OC)nc12
156 to 159 °C | CC(C)=NOc1nc(C(F)(F)F)cc(=O)n1-c1cc(Oc2ccccc2[N+](=O)[O-])c(Cl)cc1F
178 to 180 °C | Nc1cc2c(c(C(=O)O)c1)CCCC2
149 to 151 °C | CNc1c([N+](=O)[O-])ccc2c1OC(COS(=O)(=O)c1ccc(C)cc1)CO2 (stereo not given)
160 °C | Cc1cc(C)c2cccc(OCc3c(Cl)ccc(S(=O)(=O)N4CCC[C@H]4C(=O)N4CCN(C(=O)c5cccc(C(N)=NO)c5)CC4)c3Cl)c2n1
66 °C | Clc1cc(Cl)cc(C=C2CCC3(CC2)OCCO3)c1
31 to 33 °C | COC(=O)c1cc(C)cnc1Cl
